In ChEMBL document CHEMBL1201862, “PubChem BioAssay data set” (2004):
Active and inactive are the calls of the source.

Tests used:
[1] = A Cell Based Secondary Assay To Explore Cytotoxicity of Compounds that Sensitize Mycobacterium Tuberculosis to Beta-Lactam Antibiotics.; format: functional
[2] = system: CHO-K1; test: (§1) Counterscreen for antagonists of the orexin 1 receptor (OX1R; HCRTR1): Homogeneous time resolved fluorescence (HTRF)-based cell-based dose response assay to identify antagonists of the parental CHO-K1 cell line. [Related pubchem assays (depositor defined):AID434989, AID435008, AID463079, AID485270, AID492963, AID492964, AID492965, AID493232, AID504699, AID504701]; format: functional; settings: Cricetulus griseus
[3] = as §1, with “Fluorescence-based” for “Homogeneous time resolved fluorescence (HTRF)-based”, “cell-based high throughput” for “cell-based”, “CHO” for “CHO-K1”; format: functional
[4] = molecular target: T1, Orexin/Hypocretin receptor type 1 (Homo sapiens, UniProt O43613); test: Homogeneous Time Resolved Fluorescence (HTRF)-based cell-based high throughput dose response assay for antagonists of the orexin 1 receptor (OX1R; HCRTR1). [Related pubchem assays (depositor defined):AID434989, AID435008, AID463079, AID485270, AID492963, AID492964, AID492965, AID493232, AID504717, AID504718]; format: functional
T1 sequence (O43613 whole entry): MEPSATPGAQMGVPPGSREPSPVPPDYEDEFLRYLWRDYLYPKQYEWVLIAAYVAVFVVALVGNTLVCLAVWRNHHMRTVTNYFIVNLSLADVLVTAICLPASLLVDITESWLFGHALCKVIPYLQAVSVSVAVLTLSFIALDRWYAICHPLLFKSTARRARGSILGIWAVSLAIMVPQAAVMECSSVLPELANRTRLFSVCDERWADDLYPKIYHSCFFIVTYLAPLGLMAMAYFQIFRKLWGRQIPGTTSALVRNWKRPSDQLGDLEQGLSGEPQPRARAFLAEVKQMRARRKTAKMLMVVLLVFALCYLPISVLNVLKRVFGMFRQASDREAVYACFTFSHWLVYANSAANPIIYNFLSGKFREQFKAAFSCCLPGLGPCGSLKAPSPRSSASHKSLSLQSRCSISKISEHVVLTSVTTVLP

[5] = molecular target: T1, Orexin/Hypocretin receptor type 1; test: Fluorescence-based cell-based high throughput dose response assay for antagonists of the orexin 1 receptor (OX1R; HCRTR1). [Related pubchem assays (depositor defined):AID434989, AID435008, AID463079, AID485270, AID492963, AID492964, AID492965, AID493232, AID504717, AID504718]; format: functional
[6] = molecular target: T2, Orexin receptor type 2 (Homo sapiens, UniProt O43614); test: Counterscreen assay for antagonists of the orexin 1 receptor (OX1R; HCRTR1): Fluorescence-based cell-based dose response assay for antagonists of the orexin 2 receptor (OX2R; HCRTR2), run by assay provider.; format: functional
T2 sequence (O43614 whole entry): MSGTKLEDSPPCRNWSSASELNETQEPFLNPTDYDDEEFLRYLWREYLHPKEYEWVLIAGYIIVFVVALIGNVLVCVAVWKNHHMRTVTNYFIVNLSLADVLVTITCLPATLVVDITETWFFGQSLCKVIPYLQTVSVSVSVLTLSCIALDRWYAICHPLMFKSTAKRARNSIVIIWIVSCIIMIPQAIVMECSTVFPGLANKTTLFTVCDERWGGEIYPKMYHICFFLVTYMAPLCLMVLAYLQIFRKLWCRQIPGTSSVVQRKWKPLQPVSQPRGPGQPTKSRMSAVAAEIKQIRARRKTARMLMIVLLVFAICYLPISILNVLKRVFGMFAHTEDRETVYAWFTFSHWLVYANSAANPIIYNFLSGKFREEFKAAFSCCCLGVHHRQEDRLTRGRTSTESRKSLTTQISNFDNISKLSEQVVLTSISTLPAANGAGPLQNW

[7] = molecular target: T2, Orexin receptor type 2; test: Counterscreen assay for antagonists of the orexin 1 receptor (OX1R; HCRTR1): Homogeneous Time Resolved Fluorescence (HTRF)-based cell-based dose response assay for antagonists of the orexin 2 receptor (OX2R; HCRTR2), run by assay provider.; format: functional
[8] = molecular target: T3, High affinity choline transporter 1 (Homo sapiens, UniProt Q9GZV3); test: CHT inhibitors, dose response, cell-based, 5-point CRC, membrane potential dye (AID 504840); format: functional
T3 sequence (Q9GZV3 whole entry): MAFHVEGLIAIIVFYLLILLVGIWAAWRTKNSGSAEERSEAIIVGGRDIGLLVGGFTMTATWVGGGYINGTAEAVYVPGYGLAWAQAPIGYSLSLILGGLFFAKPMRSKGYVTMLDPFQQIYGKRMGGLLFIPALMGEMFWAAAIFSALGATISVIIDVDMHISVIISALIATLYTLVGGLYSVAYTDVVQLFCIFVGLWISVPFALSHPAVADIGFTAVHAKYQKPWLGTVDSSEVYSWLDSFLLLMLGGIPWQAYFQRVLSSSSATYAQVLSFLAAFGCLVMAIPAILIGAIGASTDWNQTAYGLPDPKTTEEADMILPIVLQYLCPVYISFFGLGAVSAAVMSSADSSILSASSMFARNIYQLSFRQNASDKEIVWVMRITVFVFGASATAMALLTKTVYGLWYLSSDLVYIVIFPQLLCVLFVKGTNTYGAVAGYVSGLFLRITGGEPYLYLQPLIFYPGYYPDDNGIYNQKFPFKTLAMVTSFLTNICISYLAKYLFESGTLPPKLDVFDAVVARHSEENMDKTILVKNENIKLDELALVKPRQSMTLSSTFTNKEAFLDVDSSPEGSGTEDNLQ

[9] = molecular target: T3, High affinity choline transporter 1; test: CHT inhibitors, dose response, cell-based, 10-point CRC, membrane potential dye (AID 588401); format: functional;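 further: membrane potential dye fluorescence of choline-evoked depolarization via CHT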
[10] = molecular target: T4, Corticotropin-releasing factor receptor 2/Corticotropin-releasing factor-binding protein (Homo sapiens, UniProt P24387+Q13324); test: Dose Response confirmation of uHTS hits for small molecule antagonists of the CRF-binding protein and CRF-R2 receptor complex.; format: functional; settings: read-out: IC50_Mean
T4 sequence (Q13324 whole entry): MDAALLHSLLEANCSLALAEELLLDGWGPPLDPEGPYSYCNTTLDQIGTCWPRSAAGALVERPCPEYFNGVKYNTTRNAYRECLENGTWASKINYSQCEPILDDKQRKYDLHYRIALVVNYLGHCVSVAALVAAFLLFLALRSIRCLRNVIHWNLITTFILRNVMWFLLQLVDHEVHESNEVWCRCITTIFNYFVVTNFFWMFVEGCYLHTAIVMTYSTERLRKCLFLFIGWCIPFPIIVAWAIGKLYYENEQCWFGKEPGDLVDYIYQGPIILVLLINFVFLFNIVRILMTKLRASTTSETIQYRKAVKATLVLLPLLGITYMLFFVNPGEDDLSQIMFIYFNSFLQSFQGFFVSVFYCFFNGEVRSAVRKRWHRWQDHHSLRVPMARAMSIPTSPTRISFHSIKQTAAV
T4 sequence (P24387 whole entry): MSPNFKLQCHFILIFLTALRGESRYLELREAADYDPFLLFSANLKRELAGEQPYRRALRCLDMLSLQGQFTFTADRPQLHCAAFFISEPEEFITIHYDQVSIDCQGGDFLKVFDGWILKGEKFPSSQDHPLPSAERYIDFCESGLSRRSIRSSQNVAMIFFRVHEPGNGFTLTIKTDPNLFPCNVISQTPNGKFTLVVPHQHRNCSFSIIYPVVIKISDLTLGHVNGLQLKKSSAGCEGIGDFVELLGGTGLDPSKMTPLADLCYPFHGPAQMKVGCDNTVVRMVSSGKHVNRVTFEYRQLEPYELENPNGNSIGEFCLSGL

[11] = molecular target: T4, Corticotropin-releasing factor receptor 2/Corticotropin-releasing factor-binding protein; test: activators of CRF receptor 2 with binding protein – uHTS hits, confirmation (AID 602473); format: functional; settings: read-out: EC50_Mean
[12] = CRF-BP/CRF-R2 complex antagonists, dose response, cell-based, uHTS hits, 384-well (AID 651639); format: functional, Homo sapiens; settings: read-out: IC50_Mean
[13] = THP-1 cell cytotoxicity, dose response, cytotoxicity control for Vif-APOBEC3G degradation inhibitor project, THP-1 cells (AID 1117359); format: functional; settings: Human immunodeficiency virus 1, THP-1
[14] = molecular target: Heat shock protein HSP 90-alpha (Homo sapiens, UniProt P07900); format: functional, organism-based
[15] = molecular target: Mitochondrial peptide methionine sulfoxide reductase (Bos taurus, UniProt P54149); test: Absorbance-based biochemical high throughput dose response assay for activators of Methionine sulfoxide reductase A (MsrA).; format: functional
Chain of Mitochondrial peptide methionine sulfoxide reductase (P54149 whole entry): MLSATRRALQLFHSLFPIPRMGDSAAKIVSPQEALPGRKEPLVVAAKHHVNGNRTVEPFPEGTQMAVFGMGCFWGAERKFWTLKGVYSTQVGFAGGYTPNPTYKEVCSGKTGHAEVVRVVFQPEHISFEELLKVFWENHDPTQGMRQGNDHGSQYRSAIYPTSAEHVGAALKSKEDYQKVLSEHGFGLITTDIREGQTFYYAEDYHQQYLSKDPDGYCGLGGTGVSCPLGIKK

[16] = molecular target: T5, Caspase-6 (Homo sapiens, UniProt P55212); test: human caspase-6 inhibitors, dose response, biochemical, VEID-R110 fluorescence, cherry-pick (AID 720632)
T5 sequence (P55212 whole entry): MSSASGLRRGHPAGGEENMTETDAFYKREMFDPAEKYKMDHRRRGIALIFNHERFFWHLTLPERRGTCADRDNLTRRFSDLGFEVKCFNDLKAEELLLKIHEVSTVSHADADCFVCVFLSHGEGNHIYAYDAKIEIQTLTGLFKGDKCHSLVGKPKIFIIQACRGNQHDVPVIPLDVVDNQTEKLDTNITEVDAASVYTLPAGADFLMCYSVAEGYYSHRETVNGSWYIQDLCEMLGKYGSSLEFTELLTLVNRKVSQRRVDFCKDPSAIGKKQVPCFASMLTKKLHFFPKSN

[17] = molecular target: T6, Caspase-7 (Homo sapiens, UniProt P55210); test: human caspase-7 inhibitors, dose response, selectivity assay for caspase-6 inhibitor project, biochemical, DEVD-R110 fluorescence, cherry-pick (AID 743295)
T6 sequence (P55210 whole entry): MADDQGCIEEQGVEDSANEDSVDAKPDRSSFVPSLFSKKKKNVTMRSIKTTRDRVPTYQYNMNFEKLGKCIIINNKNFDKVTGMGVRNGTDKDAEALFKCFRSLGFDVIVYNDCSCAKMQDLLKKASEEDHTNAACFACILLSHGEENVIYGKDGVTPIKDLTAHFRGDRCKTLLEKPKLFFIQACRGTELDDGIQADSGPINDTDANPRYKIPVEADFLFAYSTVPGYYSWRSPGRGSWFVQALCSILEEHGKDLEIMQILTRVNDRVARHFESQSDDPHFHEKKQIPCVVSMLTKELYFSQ

[18] = molecular target: Caspase-8 (Homo sapiens, UniProt Q14790); test: caspase-8 inhibition counter-screen, dose response, selectivity assay for caspase-6 inhibitor project, biochemical, Z-IETD-R110 fluorescence, cherry-picked samples (AID 743294)
Chain of Caspase-8 (Q14790 217-374 limits assumed): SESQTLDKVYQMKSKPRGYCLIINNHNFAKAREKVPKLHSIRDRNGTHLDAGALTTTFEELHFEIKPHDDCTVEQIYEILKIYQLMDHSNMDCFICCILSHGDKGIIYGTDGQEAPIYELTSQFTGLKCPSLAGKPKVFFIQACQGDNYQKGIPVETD
Chain of Caspase-8 (Q14790 385-479 limits assumed): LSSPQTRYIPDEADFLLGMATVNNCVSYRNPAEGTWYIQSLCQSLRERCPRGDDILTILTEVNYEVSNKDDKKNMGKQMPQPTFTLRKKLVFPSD

[19] = molecular target: ATP-dependent translocase ABCB1 (Homo sapiens, UniProt P08183); test: ABCB1 efflux pump inhibitor potency, dose response, Jurkat-DNR cells, JC-1, flow cytometry (AID 1689); format: functional
Chain of ATP-dependent translocase ABCB1 (P08183 whole entry): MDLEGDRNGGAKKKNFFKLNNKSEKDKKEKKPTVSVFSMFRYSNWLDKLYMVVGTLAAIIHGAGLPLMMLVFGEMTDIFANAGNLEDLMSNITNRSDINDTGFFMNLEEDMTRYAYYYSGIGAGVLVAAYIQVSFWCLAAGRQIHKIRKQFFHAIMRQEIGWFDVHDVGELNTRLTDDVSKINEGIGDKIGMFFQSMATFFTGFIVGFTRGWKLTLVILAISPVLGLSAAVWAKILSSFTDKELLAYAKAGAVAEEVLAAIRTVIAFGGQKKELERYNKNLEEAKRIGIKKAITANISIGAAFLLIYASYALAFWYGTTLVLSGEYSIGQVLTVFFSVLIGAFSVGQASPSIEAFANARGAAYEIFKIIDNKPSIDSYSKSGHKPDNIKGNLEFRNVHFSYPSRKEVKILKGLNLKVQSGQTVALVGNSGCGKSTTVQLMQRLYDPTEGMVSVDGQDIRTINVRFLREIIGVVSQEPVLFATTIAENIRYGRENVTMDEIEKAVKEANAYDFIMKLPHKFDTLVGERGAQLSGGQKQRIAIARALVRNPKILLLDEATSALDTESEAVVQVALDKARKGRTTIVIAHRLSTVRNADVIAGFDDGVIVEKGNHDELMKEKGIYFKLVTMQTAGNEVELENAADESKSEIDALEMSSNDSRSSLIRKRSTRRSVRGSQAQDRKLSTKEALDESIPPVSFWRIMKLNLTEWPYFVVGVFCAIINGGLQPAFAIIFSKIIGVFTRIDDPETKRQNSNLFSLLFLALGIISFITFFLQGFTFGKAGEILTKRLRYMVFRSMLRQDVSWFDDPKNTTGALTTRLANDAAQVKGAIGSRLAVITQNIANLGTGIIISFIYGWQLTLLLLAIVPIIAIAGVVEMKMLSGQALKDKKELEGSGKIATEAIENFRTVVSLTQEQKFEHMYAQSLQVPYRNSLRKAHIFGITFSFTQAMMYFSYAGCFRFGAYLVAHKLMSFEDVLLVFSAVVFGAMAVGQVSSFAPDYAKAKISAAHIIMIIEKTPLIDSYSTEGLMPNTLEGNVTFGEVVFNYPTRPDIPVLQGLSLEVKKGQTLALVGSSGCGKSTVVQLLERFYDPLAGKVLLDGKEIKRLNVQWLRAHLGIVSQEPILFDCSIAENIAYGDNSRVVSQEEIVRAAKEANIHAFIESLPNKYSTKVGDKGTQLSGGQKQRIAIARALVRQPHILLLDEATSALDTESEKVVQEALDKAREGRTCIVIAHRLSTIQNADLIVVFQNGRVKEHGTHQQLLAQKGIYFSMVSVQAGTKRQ

O=C(Nc1cccc(S(=O)(=O)NCc2ccco2)c1)c1cc(-c2ccc(F)cc2)nc2ccccc12
CC50 [1]: 2.38 µM (active) | IC50 [2]: > 66.2 µM (inactive) | IC50 [3]: > 49.8 µM (inactive) | IC50 [4]: 6.13 µM (active) | IC50 [5]: 17.2 µM (inactive) | IC50 [6]: 9.9 µM (active) | IC50 [7]: > 50 µM (inactive)

CC(c1ccco1)N(C(=O)c1ccccc1NS(=O)(=O)c1ccc(Cl)c([N+](=O)[O-])c1)c1ccccn1 (stereo not given)
IC50 [8]: 0.661 µM (inconclusive) | IC50 [9]: 4.01 µM (active) | IC50 [10]: 20.3 µM (active) | EC50 [11]: > 53 µM (inactive) | IC50 [12]: 18 µM (active)

Cc1c2ccccc2nc2c(F)c(N(C)C)c(F)c(F)c12
IC50 [2]: > 66.2 µM (inactive) | IC50 [3]: 19.7 µM (inactive) | IC50 [4]: 1.01 µM (active) | IC50 [5]: 2.19 µM (active) | IC50 [6]: 32.2 µM (inactive) | IC50 [7]: > 50 µM (inactive) | CC50 [13]: > 40 µM (active)

CC(C)(C)c1ccc(NC(=O)COC(=O)c2ccc([N+](=O)[O-])s2)cc1
AC50 [14]: 2.85 µM (active) | EC50 [15]: 54.7 µM (inactive) | AC50 [16]: 3.59 µM (active) | AC50 [17]: 21.7 µM (active) | AC50 [18]: 37.4 µM (active)

Cc1nc2cc(-c3cccc(F)c3)nn2c(N2CCN(C(=O)c3ccco3)CC2)c1C
EC50 [19]: 14.6 µM (inactive)
